The values below come from ChEMBL document CHEMBL1833857, “Histone deacetylase activators: N-acetylthioureas serve as highly potent and isozyme selective activators for human histone deacetylase-8 on a fluorescent substrate” (Bioorg Med Chem Lett, 2011).

Activity calls are given as the source filed them. No cut-off for these calls is given here.

The target in assay [1] is Histone deacetylase 1 (Homo sapiens) (UniProt Q13547). As to the kind of experiment: Activation of HDAC1 using Fluor-de-Lys as substrate at 10 uM by spectrofluorometry.
In assay [2] the target is Histone deacetylase 2 (Homo sapiens) (UniProt Q92769). As to the kind of experiment: Inhibition of HDAC2 using Fluor-de-Lys as substrate at 100 uM by spectrofluorometry.
Assay [3] addresses T1, Histone deacetylase 11 (Homo sapiens) (UniProt Q96DB2).
T1 sequence (whole entry): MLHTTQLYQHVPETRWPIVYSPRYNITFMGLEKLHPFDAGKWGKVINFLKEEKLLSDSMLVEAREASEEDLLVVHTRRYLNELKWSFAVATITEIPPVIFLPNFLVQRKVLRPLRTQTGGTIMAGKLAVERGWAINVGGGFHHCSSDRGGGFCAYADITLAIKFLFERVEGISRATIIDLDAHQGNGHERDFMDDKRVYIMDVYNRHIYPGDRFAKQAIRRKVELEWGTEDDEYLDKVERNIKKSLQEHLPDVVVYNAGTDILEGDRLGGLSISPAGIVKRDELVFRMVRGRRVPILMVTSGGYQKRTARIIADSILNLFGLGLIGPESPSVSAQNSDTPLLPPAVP
Description: Inhibition of HDAC11 using Fluor-de-Lys as substrate at 100 uM by spectrofluorometry.

Assay [4] has as its target Histone deacetylase 2 (Homo sapiens) (UniProt Q92769). As to the kind of experiment: Activation of HDAC2 using Fluor-de-Lys as substrate at 100 uM by spectrofluorometry.
Assay [5] has as its target Histone deacetylase 3 (Homo sapiens) (UniProt O15379). Description: Activation of HDAC3 using Fluor-de-Lys as substrate at 10 uM by spectrofluorometry.
Assay [6] deals with Histone deacetylase 4 (Homo sapiens) (UniProt P56524). As to the kind of experiment: Activation of HDAC4 using trifluoroacetyl-lysine containing fluorogenic substrate at 100 uM by spectrofluorometry.
The target of assay [7] is Histone deacetylase 3 (Homo sapiens) (UniProt O15379). As to the kind of experiment: Activation of HDAC3 using Fluor-de-Lys as substrate at 100 uM by spectrofluorometry.
Assay [8] deals with T2, Polyamine deacetylase HDAC10 (Homo sapiens) (UniProt Q969S8).
T2 sequence (whole entry): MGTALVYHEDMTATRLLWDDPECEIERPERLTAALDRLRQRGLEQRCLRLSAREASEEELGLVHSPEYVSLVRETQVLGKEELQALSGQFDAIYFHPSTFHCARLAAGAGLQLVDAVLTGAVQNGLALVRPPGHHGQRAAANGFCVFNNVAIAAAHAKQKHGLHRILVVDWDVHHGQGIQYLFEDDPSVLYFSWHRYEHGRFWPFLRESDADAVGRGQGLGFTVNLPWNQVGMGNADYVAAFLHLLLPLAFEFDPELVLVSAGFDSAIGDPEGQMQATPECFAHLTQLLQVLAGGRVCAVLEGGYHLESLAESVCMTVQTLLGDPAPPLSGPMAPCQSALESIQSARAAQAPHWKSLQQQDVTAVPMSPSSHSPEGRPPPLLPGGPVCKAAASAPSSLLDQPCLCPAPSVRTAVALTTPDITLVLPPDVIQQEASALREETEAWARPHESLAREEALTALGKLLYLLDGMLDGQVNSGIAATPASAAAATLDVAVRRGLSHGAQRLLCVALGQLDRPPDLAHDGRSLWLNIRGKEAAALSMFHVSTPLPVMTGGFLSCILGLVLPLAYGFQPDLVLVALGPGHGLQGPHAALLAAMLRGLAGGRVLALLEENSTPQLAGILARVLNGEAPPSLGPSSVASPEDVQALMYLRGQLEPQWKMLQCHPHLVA
As to the kind of experiment: Inhibition of HDAC10 using Fluor-de-Lys as substrate at 100 uM by spectrofluorometry.

Assay [9] deals with Histone deacetylase 4 (Homo sapiens) (UniProt P56524). As to the kind of experiment: Activation of HDAC4 using trifluoroacetyl-lysine containing fluorogenic substrate at 10 uM by spectrofluorometry.
The target of assay [10] is Histone deacetylase 1 (Homo sapiens) (UniProt Q13547). Description: Inhibition of HDAC1 using Fluor-de-Lys as substrate at 100 uM by spectrofluorometry.
Assay [11] concerns the target T3, Protein deacetylase HDAC6 (Homo sapiens) (UniProt Q9UBN7).
T3 sequence (whole entry): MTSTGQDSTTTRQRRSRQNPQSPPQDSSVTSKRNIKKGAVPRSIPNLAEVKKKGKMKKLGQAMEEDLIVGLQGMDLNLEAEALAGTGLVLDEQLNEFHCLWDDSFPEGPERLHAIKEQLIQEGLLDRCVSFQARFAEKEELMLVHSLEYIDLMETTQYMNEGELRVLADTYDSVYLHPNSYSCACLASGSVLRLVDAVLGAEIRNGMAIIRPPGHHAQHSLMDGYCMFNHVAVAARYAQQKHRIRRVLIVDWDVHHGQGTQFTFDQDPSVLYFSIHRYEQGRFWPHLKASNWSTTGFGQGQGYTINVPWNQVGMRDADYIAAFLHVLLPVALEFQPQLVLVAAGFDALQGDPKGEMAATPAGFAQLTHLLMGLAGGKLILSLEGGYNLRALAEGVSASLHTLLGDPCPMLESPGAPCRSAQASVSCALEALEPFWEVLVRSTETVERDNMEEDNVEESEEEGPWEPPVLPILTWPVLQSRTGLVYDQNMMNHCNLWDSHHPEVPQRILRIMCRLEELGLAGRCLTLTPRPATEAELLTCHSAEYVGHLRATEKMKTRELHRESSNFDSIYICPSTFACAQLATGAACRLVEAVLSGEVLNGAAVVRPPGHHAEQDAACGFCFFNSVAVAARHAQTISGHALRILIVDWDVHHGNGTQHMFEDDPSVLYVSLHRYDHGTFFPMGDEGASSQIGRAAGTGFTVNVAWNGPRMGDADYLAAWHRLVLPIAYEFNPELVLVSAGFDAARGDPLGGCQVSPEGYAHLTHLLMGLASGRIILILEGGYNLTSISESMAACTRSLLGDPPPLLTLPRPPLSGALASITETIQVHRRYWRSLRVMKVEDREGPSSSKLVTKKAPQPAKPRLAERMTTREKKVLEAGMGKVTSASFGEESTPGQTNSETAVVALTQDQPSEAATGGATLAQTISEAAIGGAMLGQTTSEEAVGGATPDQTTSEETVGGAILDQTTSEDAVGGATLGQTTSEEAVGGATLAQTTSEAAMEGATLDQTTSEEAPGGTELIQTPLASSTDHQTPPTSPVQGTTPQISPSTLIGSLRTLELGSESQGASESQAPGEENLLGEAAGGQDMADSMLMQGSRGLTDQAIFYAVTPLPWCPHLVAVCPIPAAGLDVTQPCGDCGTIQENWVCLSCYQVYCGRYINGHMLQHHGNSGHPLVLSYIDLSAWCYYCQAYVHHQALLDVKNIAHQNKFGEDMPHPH
Description: Inhibition of HDAC6 using Fluor-de-Lys as substrate at 100 uM by spectrofluorometry.

Assay [12] addresses Histone deacetylase 4 (Homo sapiens) (UniProt P56524). As to the kind of experiment: Inhibition of HDAC4 using trifluoroacetyl-lysine containing fluorogenic substrate at 100 uM by spectrofluorometry.
In assay [13] the target is T4, Histone deacetylase 8 (Homo sapiens) (UniProt Q9BY41).
T4 sequence (whole entry): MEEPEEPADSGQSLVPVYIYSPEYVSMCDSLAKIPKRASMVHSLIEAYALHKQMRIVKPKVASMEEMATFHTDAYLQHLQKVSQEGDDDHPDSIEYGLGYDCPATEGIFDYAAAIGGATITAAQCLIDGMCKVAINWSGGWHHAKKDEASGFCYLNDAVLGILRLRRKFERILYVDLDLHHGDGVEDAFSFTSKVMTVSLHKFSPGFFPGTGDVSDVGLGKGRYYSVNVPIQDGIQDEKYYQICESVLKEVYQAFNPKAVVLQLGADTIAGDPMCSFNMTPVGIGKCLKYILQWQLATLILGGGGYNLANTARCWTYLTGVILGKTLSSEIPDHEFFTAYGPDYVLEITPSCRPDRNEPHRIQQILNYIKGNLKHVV
As to the kind of experiment: Activation of recombinant human HDAC8 assessed as ratio of the initial rate of reaction in the absence and presence of compound using Fluor-de-Lys as substrate at 10 uM by spectrofluorometry.

The target in assay [14] is Histone deacetylase 2 (Homo sapiens) (UniProt Q92769). As to the kind of experiment: Activation of HDAC2 using Fluor-de-Lys as substrate at 10 uM by spectrofluorometry.
Assay [15] addresses Histone deacetylase 1 (Homo sapiens) (UniProt Q13547). Description: Activation of HDAC1 using Fluor-de-Lys as substrate at 100 uM by spectrofluorometry.
Assay [16] addresses Histone deacetylase 3 (Homo sapiens) (UniProt O15379). Description: Inhibition of HDAC3 using Fluor-de-Lys as substrate at 100 uM by spectrofluorometry.
The target in assay [17] is T3, Protein deacetylase HDAC6 (Homo sapiens). As to the kind of experiment: Activation of HDAC6 using Fluor-de-Lys as substrate at 10 uM by spectrofluorometry.
Assay [18] has the same target. As to the kind of experiment: Activation of HDAC6 using Fluor-de-Lys as substrate at 100 uM by spectrofluorometry.

Sequence of Histone deacetylase 1 (Homo sapiens) (Q13547 whole entry): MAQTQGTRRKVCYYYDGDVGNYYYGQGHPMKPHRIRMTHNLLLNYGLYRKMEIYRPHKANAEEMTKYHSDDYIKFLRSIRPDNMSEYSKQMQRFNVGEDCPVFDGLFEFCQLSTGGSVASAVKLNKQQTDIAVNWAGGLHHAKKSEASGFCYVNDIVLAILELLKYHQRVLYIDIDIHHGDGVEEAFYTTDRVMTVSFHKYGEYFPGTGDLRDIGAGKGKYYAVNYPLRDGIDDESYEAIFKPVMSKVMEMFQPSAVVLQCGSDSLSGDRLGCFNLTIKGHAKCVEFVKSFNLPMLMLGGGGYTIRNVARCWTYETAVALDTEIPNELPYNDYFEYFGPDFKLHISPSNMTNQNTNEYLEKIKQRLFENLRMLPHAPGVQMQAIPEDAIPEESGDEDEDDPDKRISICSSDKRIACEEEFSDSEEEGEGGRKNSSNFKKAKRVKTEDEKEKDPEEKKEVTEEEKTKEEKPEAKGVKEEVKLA
Sequence of Histone deacetylase 4 (Homo sapiens) (P56524 whole entry): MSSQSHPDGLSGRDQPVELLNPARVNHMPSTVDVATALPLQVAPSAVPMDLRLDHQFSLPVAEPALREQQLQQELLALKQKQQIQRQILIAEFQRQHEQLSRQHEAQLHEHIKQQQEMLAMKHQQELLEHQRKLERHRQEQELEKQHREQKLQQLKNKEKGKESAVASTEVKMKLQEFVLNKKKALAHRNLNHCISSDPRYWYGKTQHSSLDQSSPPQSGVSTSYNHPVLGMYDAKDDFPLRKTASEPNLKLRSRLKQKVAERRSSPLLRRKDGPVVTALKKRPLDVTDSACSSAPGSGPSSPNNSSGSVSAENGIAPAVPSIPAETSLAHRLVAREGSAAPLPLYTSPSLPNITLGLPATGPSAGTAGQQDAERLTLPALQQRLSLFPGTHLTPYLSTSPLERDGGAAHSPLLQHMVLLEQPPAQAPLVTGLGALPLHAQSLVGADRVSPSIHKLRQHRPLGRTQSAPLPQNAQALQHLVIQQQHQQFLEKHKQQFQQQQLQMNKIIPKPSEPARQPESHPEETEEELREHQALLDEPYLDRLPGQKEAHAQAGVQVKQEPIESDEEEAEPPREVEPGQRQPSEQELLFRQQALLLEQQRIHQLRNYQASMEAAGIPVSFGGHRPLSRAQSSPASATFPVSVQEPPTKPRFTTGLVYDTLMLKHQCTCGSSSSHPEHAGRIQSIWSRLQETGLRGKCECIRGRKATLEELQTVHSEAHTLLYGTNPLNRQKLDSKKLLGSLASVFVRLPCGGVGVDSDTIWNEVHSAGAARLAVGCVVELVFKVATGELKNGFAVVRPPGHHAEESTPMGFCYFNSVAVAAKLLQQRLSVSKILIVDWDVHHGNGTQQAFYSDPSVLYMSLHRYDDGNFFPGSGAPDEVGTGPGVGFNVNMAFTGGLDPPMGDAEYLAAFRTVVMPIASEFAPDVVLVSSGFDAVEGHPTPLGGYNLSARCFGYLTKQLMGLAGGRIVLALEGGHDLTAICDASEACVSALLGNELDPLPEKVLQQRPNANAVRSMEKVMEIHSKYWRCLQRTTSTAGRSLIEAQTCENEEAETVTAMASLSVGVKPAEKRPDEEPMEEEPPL
Sequence of Histone deacetylase 3 (Homo sapiens) (O15379 whole entry): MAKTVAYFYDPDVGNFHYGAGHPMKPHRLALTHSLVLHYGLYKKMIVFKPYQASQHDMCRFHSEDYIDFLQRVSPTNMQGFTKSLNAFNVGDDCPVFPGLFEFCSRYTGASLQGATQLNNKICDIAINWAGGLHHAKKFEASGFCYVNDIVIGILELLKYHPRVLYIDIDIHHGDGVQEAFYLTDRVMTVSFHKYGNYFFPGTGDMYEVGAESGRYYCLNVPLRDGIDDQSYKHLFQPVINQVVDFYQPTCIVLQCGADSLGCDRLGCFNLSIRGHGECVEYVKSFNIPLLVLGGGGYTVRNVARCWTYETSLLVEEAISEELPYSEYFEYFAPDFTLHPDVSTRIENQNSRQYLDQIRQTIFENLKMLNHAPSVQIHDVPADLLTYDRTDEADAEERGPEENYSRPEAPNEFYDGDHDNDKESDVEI
Sequence of Histone deacetylase 2 (Homo sapiens) (Q92769 whole entry): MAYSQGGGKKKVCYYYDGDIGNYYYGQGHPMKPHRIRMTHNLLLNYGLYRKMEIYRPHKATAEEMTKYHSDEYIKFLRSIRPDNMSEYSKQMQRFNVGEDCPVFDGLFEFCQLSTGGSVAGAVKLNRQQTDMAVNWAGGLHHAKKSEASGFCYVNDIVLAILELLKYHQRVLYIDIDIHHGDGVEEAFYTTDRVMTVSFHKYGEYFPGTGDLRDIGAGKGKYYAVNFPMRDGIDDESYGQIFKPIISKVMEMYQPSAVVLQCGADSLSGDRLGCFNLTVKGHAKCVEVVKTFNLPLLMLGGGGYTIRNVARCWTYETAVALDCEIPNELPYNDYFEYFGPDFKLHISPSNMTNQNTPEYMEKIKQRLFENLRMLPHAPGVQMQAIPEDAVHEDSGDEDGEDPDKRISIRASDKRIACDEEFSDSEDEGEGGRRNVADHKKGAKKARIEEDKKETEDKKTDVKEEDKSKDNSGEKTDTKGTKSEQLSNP

`O=C(NC(=S)NCc1cc(C(F)(F)F)cc(C(F)(F)F)c1)c1ccccc1`: the result in assay [1], in [4], in assay [5], in assay [6], in assay [7] and in [9] was inactive. For the same compound, the outcome in assay [14] and in assay [15] was inactive. The inhibition entry in [2], in assay [10], in assay [12] and in [16] was “inactive” each time. For the same compound, the inhibition in assay [3], in assay [8] and in [11] was 10% throughout. Further, in [13], the fold change (FC) was 1.1.
In the case of `C[C@@H](NC(=S)NC(=O)c1ccccc1)c1ccccc1`, the outcome in assay [1], in assay [6] and in assay [9] was inactive. Also, the inhibition stood at 6% in assay [2]; 8% in assay [3]; 5% in [8]; 45% in [11]; 6% in [16]. In addition, the inhibition entry in assay [12] is “inactive”. The fold change (FC) in [13] was determined as 1.5. Also, the Activity in [15] was 4%.
On to `O=C(NC(=S)NCc1cccs1)c1ccccc1`, for which the result in assay [1], in [6], in assay [9] and in assay [15] was inactive. Besides, the inhibition in assay [2] worked out at 9%; in assay [3] it was 12%; in assay [8] it was 47%; in assay [11], 10%; in [16] it was 5%. Moreover, the inhibition entry in assay [10] and in [12] was “inactive” throughout. Moreover, the fold change (FC) in assay [13] is 3.
For the compound `COc1cc(NC(=S)NC(=O)c2ccccc2)cc(OC)c1`, the outcome in assay [1], in [6], in [9] and in [15] was inactive. Also, the inhibition in assay [2] was 6%; in [3], 10%; in assay [8], 10%; in assay [11], 5%; in assay [16], 5%. Further, the inhibition result in assay [10] and in assay [12] was “inactive” each time. For the same compound, the fold change (FC) in assay [13] turned out to be 8.4.
With `O=C(NC(=S)NCc1ccc(-c2ccccc2)cc1)c1ccccc1`, the outcome in assay [1], in [5], in assay [6], in assay [7], in assay [17] and in assay [9] was inactive. The result in assay [18] and in assay [15] was inactive. Further, the inhibition in assay [2] was 10%; in assay [3] it was 10%; in assay [8], 5%. For the same compound, the inhibition entry in assay [10], in assay [11], in assay [12] and in [16] was “inactive” in each case. Also, the fold change (FC) in [13] is 1.1.
In the case of `C[C@H](NC(=S)NC(=O)c1ccccc1)c1ccccc1`, the outcome in assay [1], in assay [5], in [6], in [7], in assay [17] and in assay [9] was inactive. Besides, the outcome in assay [18] and in [15] was inactive. Besides, the inhibition was 5% in assay [2], 10% in [3] and 10% in assay [8]. Also, the inhibition entry in assay [10], in [11], in assay [12] and in assay [16] was “inactive” throughout. Further, the fold change (FC) in [13] was 4.5.
